# Reference: US9169205B2, “Pyrrolidine derivatives, pharmaceutical compositions and uses thereof” (Boehringer Ingelheim International GmbH, priority 2012, dated 2015)
# Molecular target: human ACC2 (Homo sapiens (Human), UniProt O00763)
# Assay: ACC2 assay (spectrophotometric 384 well assay, NADH-linked kinetic method)
# Type: biochemical
# Settings: hACC2 construct lacking 128 N-terminal amino acids, 25° C., 340 nm
# Description: Spectrophotometric 384 Well Assay
# Malonyl CoA formation by acetyl CoA carboxylases is stoichometrically linked to the consumption of ATP. ACC2 activity is measured in a NADH-linked kinetic method measuring ADP generated during the ACC reaction using a coupled lactate dehydrogenase/pyruvate kinase reaction.
# The protein is then expressed in insect cells using a baculoviral expression system. Protein purification is performed by anion exchange.
# All compounds are dissolved in dimethyl sulfoxide (DMSO) to a concentration of 10 mM.
# The enzymatic reaction is then started by addition of a mixture of NADH, acetyl Coenzyme A (both 200 μM f.c.) and ATP (500 uM f.c.). The decrease of the optical density (slope S) is then determined at 25° C. at a wavelength of 340 nm over 15 minutes in a spectrophotometric reader.
# Each assay microtiter plate contains wells with vehicle instead of compound as controls for the non-inhibited enzyme (100% CTL; ‘HIGH’) and wells without acetyl-CoA as controls for non-specific NADH degradation (0% CTL; ‘LOW’).
# human ACC2, sequence (O00763 129-2458): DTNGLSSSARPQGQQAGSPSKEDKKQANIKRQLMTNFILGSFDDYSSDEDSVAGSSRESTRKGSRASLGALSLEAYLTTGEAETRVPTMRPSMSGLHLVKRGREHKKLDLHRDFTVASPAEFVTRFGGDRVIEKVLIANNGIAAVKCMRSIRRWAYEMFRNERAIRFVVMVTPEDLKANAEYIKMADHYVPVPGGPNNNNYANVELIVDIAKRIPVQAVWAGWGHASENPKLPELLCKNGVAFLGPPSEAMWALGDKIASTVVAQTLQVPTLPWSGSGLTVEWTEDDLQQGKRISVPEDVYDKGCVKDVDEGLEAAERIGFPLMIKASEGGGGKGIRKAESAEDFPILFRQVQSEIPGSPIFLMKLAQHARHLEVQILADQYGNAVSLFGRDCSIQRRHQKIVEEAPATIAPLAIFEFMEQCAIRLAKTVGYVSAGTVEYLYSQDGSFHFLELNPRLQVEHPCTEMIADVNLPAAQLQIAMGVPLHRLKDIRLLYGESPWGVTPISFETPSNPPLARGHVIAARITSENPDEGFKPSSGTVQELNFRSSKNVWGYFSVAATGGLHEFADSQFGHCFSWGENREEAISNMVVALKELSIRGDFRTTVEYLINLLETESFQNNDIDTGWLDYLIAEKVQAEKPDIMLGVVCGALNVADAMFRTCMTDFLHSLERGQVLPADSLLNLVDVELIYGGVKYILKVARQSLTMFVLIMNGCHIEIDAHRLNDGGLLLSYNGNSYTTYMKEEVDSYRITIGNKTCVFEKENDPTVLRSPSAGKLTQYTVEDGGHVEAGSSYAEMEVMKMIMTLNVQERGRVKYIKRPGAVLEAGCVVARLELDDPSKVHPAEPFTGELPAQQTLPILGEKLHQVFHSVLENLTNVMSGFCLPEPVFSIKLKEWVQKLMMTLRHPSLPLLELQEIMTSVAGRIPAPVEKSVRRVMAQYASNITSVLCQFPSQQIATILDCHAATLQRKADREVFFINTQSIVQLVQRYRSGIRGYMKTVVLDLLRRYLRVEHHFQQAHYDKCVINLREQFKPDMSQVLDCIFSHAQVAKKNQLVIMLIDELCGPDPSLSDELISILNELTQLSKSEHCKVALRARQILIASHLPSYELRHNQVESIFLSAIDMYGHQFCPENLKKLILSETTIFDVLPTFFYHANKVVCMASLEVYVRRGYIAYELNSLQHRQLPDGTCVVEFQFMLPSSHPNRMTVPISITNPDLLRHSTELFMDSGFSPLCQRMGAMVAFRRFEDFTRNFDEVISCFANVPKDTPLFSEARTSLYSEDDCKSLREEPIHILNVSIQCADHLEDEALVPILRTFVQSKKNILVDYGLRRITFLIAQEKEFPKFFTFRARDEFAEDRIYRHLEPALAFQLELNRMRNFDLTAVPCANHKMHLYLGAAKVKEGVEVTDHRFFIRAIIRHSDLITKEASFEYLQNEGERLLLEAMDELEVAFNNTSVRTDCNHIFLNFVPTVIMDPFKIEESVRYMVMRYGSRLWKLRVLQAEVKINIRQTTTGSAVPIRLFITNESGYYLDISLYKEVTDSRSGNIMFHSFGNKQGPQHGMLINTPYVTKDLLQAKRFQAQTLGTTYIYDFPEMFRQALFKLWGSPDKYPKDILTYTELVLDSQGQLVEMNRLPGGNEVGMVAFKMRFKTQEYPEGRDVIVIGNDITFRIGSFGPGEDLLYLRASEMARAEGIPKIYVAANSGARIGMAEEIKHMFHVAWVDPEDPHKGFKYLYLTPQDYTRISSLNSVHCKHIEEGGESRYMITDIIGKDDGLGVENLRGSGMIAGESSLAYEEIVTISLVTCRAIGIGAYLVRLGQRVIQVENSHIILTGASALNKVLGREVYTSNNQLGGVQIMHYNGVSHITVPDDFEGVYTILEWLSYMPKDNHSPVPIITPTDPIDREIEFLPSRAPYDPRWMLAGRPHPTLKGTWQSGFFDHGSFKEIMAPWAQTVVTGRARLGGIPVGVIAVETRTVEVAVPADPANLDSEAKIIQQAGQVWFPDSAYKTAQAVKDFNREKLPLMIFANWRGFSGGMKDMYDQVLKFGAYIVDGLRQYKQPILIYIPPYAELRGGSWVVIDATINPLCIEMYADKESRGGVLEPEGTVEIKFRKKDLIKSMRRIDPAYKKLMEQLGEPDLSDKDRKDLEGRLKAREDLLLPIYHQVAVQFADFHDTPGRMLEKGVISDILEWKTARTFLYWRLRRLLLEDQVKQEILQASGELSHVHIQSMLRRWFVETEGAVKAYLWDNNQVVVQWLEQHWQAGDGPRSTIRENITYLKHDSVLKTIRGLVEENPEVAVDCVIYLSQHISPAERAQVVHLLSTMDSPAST
row,IC50 [µM],SMILES
1,0.229,CC(=O)N[C@@H](C)c1ccc(OC2CCN(c3ccc4c(c3)OCCO4)C2)cc1 (stereo partly shown) [Example 1.7]
2,0.174,CC(=O)N[C@@H](C)c1ccc(OC2CCN(c3cc(C(F)(F)F)ccc3C)C2)cc1 (stereo partly shown) [Example 1.30]
3,0.793,C[C@H](O)C(=O)N[C@@H](C)c1ccc(O[C@@H]2CCN(c3ccc(OCC4CC4)cc3)C2)cc1 [Example 2.30]
4,0.102,CC(=O)N[C@@H](C)c1ccc(OC2CCN(c3ccc(OCCCF)cc3C)C2)cc1 (stereo partly shown) [Example 1.88]
5,0.685,COCCOc1ccc(N2CCC(Oc3ccc([C@H](C)NC(C)=O)cc3)C2)c(F)c1 (stereo partly shown) [Example 1.38]
6,0.3,CC(=O)N[C@@H](C)c1ccc(OC2CCN(c3ccc(F)c(Cl)c3)C2)cc1 (stereo partly shown) [Example 1.54]
7,0.589,COc1ccc(N2CCC(Oc3ccc([C@H](C)NC(C)=O)cc3)C2)cc1 (stereo partly shown) [Example 1.24]
8,0.845,CC(=O)N[C@@H](C)c1ccc(OC2CCN(c3cccc(OC(F)(F)F)c3)C2)cc1 (stereo partly shown) [Example 1.61]
9,0.053,CCOc1ccc(N2CC[C@@H](Oc3ccc([C@H](C)NC(=O)c4sc(NC(=O)COC(C)=O)nc4C)cc3)C2)cc1 [Example 2.55]
10,0.46,"COCCCOc1ccc(N2CC[C@@H](Oc3ccc([C@H](C)NC(C)=O)cc3)C2)cc1 [Example 4.1, N—((S)-1-(4-((R)-1-(4-(3-methoxypropoxy)phenyl)pyrrolidin-3-yloxy)phenyl)ethyl)-acetamide]"
11,0.68,Cc1cc(OC2CC2)ccc1N1CC[C@@H](Oc2ccc([C@H](C)NC(=O)CC#N)cc2)C1 [Example 2.59]
12,0.105,C[C@H](NC(=O)c1ccns1)c1ccc(O[C@@H]2CCN(c3ccc(OCC4CC4)cc3)C2)cc1 [Example 2.28]
13,0.383,CCOc1ccc(N2CCC(Oc3ccc([C@H](C)NC(C)=O)cc3)C2)cc1F (stereo partly shown) [Example 1.99]
14,0.762,CC(=O)NC(C)c1ccc(OC2CCN(c3ccc(OCC4CC4)cc3)C2)cc1F (stereo not shown) [Example 7.2]
15,1.27,C[C@H](NC(=O)N1CCC1)c1ccc(OC2CCN(c3ccc(OCC4CC4)cc3)C2)cc1 (stereo partly shown) [Example 3.3]
16,0.573,CC(=O)N[C@@H](C)c1ccc(OC2CCN(c3ccc(OCC4CCCO4)cc3)C2)cc1 (stereo partly shown) [Example 1.21]
17,0.045,CC(=O)N[C@@H](C)c1ccc(OC2CCN(c3ccc(OCC4CC4(F)F)cc3F)C2)cc1 (stereo partly shown) [Example 1.41]
18,0.875,CC(C)Oc1ccc(N2CCC(Oc3ccc([C@H](C)NC(=O)N(C)C)cc3)C2)cc1 (stereo partly shown) [Example 1.65]
19,0.065,Cc1nocc1C(=O)N[C@@H](C)c1ccc(O[C@@H]2CCN(c3ccc(OCC4CC4)cc3)C2)cc1 [Example 2.37]
20,0.073,CNC(=O)N[C@@H](C)c1ccc(OC2CCN(c3ccc(OCC4CC4)cc3)C2)cc1 (stereo partly shown) [Example 3.8]
21,0.399,C[C@H](NC(=O)Cc1cnccn1)c1ccc(O[C@@H]2CCN(c3ccc(OCC4CC4)cc3)C2)cc1 [Example 2.3]
22,0.435,CC(=O)N[C@@H](C)c1ccc(OC2CCN(c3ccccc3)C2)cc1 (stereo partly shown) [Example 1.44]
23,0.496,CC(=O)N[C@@H](C)c1ccc(OC2CCN(c3ccc(OC(F)F)cc3)C2)cc1 (stereo partly shown) [Example 1.79]

row,IC50 [µM],SMILES
1,0.226,CC(=O)N[C@@H](C)c1ccc(O[C@@H]2CCN(c3cccc(OCC4CC4)c3)C2)cc1 [Example 1.11]
2,0.23,CC(=O)N[C@@H](C)c1ccc(OC2CCN(c3ccc(OC4CC4)cc3C#N)C2)cc1 (stereo partly shown) [Example 1.73]
3,0.339,CC(=O)N[C@@H](C)c1ccc(OC2CCN(c3ccc4c(c3F)OCCO4)C2)cc1 (stereo partly shown) [Example 1.47]
4,0.33,Cc1cc(C(=O)N[C@@H](C)c2ccc(O[C@@H]3CCN(c4ccc(OCC5CC5)cc4)C3)cc2)[nH]n1 [Example 2.8]
5,0.084,CC(=O)N[C@@H](C)c1ccc(OC2CCN(c3ccc4c(c3)OCCCO4)C2)cc1 (stereo partly shown) [Example 1.23]
6,0.049,"COC(=O)N[C@@H](C)c1ccc(O[C@@H]2CCN(c3ccc(OCC4CC4)cc3)C2)cc1 [Example 5.1, Methyl-(S)-1-(4-((R)-1-(4-(cyclopropylmethoxy)phenyl)pyrrolidin-3-yloxy)phenyl)-ethylcarbamate]"
7,1.28,CC(C)Oc1ccc(N2CCC(Oc3ccc([C@H](C)NC(=O)N4CCOCC4)cc3)C2)cc1 (stereo partly shown) [Example 3.12]
8,0.214,CC(=O)N[C@@H](C)c1ccc(OC2CCN(c3ccc(OC(C)C)cc3)C2)cc1 (stereo partly shown) [Example 1.15]
9,0.382,C[C@H](NC(=O)c1cnn(C(F)F)c1)c1ccc(O[C@@H]2CCN(c3ccc(OCC4CC4)cc3)C2)cc1 [Example 2.46]
10,0.574,CC(=O)N[C@@H](C)c1ccc(OC2CCN(c3ccc4c(c3)OC(F)(F)O4)C2)cc1 (stereo partly shown) [Example 1.80]
11,0.086,CC(=O)N[C@@H](C)c1ccc(OC2CCN(c3ccc(OC4CC4)cc3C)C2)cc1 (stereo partly shown) [Example 1.25]
12,0.107,C[C@H](NC(=O)c1cnc(N)o1)c1ccc(O[C@@H]2CCN(c3ccc(OCC4CC4)cc3)C2)cc1 [Example 2.27]
13,0.384,COc1cc(F)c(N2CCC(Oc3ccc([C@H](C)NC(C)=O)cc3)C2)cc1F (stereo partly shown) [Example 1.92]
14,0.11,CC(=O)N[C@@H](C)c1ccc(OC2CCN(c3cccc(C(F)(F)F)c3)C2)cc1 (stereo partly shown) [Example 1.27]
15,0.272,CC(=O)N[C@@H](C)c1ccc(OC2CCN(c3ccc(OC4CCOC4)cc3)C2)cc1 (stereo partly shown) [Example 1.71]
16,0.071,C[C@H](NC(=O)CC#N)c1ccc(O[C@@H]2CCN(c3ccc(OCC4CC4)cc3)C2)cc1 [Example 2.31]
17,0.166,CC(=O)N[C@@H](C)c1ccc(OC2CCN(c3cccc(C(F)F)c3)C2)cc1 (stereo partly shown) [Example 1.95]
18,0.163,"CCOc1ccc(N2CC[C@@H](Oc3ccc([C@H](C)NC(=O)c4sc(NC(=O)CO)nc4C)cc3)C2)cc1 [Example 10, N—((S)-1-(4-((R)-1-(4-Ethoxyphenyl)pyrrolidin-3-yloxy)phenyl)-ethyl)-2-(2-hydroxyacetamido)-4-methylthiazole-5-carboxamide]"
19,0.238,CC(=O)Nc1nc(C)c(C(=O)N[C@@H](C)c2ccc(O[C@@H]3CCN(c4ccc(OC5CC5)cc4C)C3)cc2)s1 [Example 2.63]
20,0.8,COc1ccccc1C(=O)N[C@@H](C)c1ccc(O[C@@H]2CCN(c3ccc(OCC4CC4)cc3)C2)cc1 [Example 2.5]
21,0.263,CCOc1ccc(N2CC[C@H](Oc3ccc([C@H](C)NC(C)=O)cc3)C2)cc1 [Example 1.3]
22,0.551,Cc1ncncc1C(=O)N[C@@H](C)c1ccc(O[C@@H]2CCN(c3ccc(OCC4CC4)cc3)C2)cc1 [Example 2.18]
23,0.863,Cc1cc(OC2CC2)ccc1N1CCC(Oc2ccc([C@H](C)NC(=O)N3CCOCC3)cc2)C1 (stereo partly shown) [Example 3.13]

row,IC50 [µM],SMILES
1,0.061,C[C@H](NC(=O)c1ccno1)c1ccc(O[C@@H]2CCN(c3ccc(OCC4CC4)cc3)C2)cc1 [Example 8.3]
2,1.75,C[C@H](NC(=O)C1CC[C@@H](N)C1)c1ccc(O[C@@H]2CCN(c3ccc(OCC4CC4)cc3)C2)cc1 (stereo partly shown) [Example 9]
3,0.226,CC(=O)N[C@@H](C)c1ccc(OC2CCN(c3cc4c(cc3F)OCCO4)C2)cc1 (stereo partly shown) [Example 1.46]
4,0.899,CC(=O)N[C@@H](C)c1ccc(OC2CCN(c3ccc(F)cc3F)C2)cc1 (stereo partly shown) [Example 1.35]
5,0.775,CC(=O)N[C@@H](C)c1ccc(O[C@H]2CCN(c3ccc(OC4CC4)cc3)C2)cc1 [Example 1.49]
6,0.224,CC(=O)N[C@@H](C)c1ccc(OC2CCN(c3ccc(F)c(C(F)(F)F)c3)C2)cc1 (stereo partly shown) [Example 1.34]
7,0.04,CCC(=O)N[C@@H](C)c1ccc(O[C@@H]2CCN(c3ccc(OCC4CC4)cc3)C2)cc1 [Example 2.24]
8,0.224,CC(=O)N[C@@H](C)c1ccc(OC2CCN(c3ccc(OCC(C)(C)F)cc3)C2)cc1 (stereo partly shown) [Example 1.89]
9,0.35,CC(=O)N[C@@H](C)c1ccc(OC2CCN(c3ccc4c(c3C)OCCO4)C2)cc1 (stereo partly shown) [Example 1.83]
10,0.443,COc1cc(OCC2CC2(F)F)ccc1N1CCC(Oc2ccc([C@H](C)NC(C)=O)cc2)C1 (stereo partly shown) [Example 1.57]
11,0.495,C[C@H](NC(=O)c1cnn(CCO)c1)c1ccc(O[C@@H]2CCN(c3ccc(OCC4CC4)cc3)C2)cc1 [Example 2.51]
12,0.705,CNC(=O)c1cccc(C(=O)N[C@@H](C)c2ccc(O[C@@H]3CCN(c4ccc(OCC5CC5)cc4)C3)cc2)n1 [Example 2.14]
13,0.09,Cc1cc(OC2CC2)ccc1N1CC[C@@H](Oc2ccc([C@H](C)NC(=O)c3cnoc3C)cc2)C1 [Example 2.65]
14,0.601,COc1ccc(N2CCC(Oc3ccc([C@H](C)NC(C)=O)cc3)C2)cc1F (stereo partly shown) [Example 1.93]
15,0.205,CNC(=O)N[C@@H](C)c1ccc(OC2CCN(c3ccc(OC(C)C)cc3)C2)cc1 (stereo partly shown) [Example 3.9]
16,0.023,CCC(=O)Nc1nc(C)c(C(=O)N[C@@H](C)c2ccc(OC3CCN(c4ccc(OCC5CC5)cc4)C3)cc2)s1 (stereo partly shown) [Example 2.41]
17,0.589,CC(=O)N[C@@H](C)c1ccc(OC2CCN(c3ccc(OC4CCOC4)cc3F)C2)cc1 (stereo partly shown) [Example 1.42]
18,0.155,CCCOc1ccc(N2CCC(Oc3ccc([C@H](C)NC(C)=O)cc3)C2)c(C#N)c1 (stereo partly shown) [Example 1.13]
19,0.774,CCC(=O)N[C@@H](C)c1ccc(O[C@@H]2CCN(c3ccc(OC(C)C)cc3)C2)cc1 [Example 2.20]
20,1.15,CCCOc1ccc(N2CCC(Oc3ccc([C@H](C)NC(C)=O)cc3)C2)c(OC)c1 (stereo partly shown) [Example 1.9]
21,0.097,CC(=O)N[C@@H](C)c1ccc(OC2CCN(c3cc4c(cc3F)OCCCO4)C2)cc1 (stereo partly shown) [Example 1.36]
